Patent US20210179591A1, “NEW COMPOUNDS FOR USE AS A THERAPEUTICALLY ACTIVE SUBSTANCE AND IN PARTICULAR FOR USE IN THE TREATMENT OF TUMORS” (ETH ZURICH, priority 2017, published 2021)
Like-named read-outs stand apart in the source and are kept apart here.

What was measured:
[1] = target: T1, GST-DYRK1B (Homo sapiens, UniProt Q9Y463); assay: IC50 determination of DYRK1B inhibitors (ADP-Glo in vitro kinase assay with DYRKtide); format: biochemical; conditions: ATP 100 μM
T1 construct: purchased ThermoFisher
Method: In a preferred embodiment, the compounds of the present invention show inhibition of DYRK1B and/or DYRK1A to a higher extent than expected by the skilled person. The inhibition may be expressed as IC50, i.e. the concentration necessary to inhibit activity to 50%. […] The IC50 value may be determined using methods such as those described in the examples. As such, a suitable method comprises the steps of incubating GST-DYRK1B (e.g. at 5 nM) and DYRKtide (e.g. at 50 μM) in kinase buffer, following compound dispensing (e.g. 1 μl), e.g. 2 μl of ATP (final concentration e.g. 100 μM) and incubating, preferably at room temperature. After that, a detectable compound such as ADP-Glo™ reagent can be dispensed and incubated, preferably at room temperature. Finally, Kinase Detection Reagent can be dispensed and the solution be incubated before measuring.
Compounds of formula 16, 12, 14, 10 and 19 inhibited DYRK1B (SEQ. ID. NO. 1) kinase activity with an IC50 of 2 μM, 2 μM, 3 μM, 4 μM and 3 μM respectively. Titration curves show average of n=3 independent experiments, average±SD.
GST-DYRK1B (5 nM) and DYRKtide (50 μM) (Lucerna-Chem AG, D96-58) diluted in kinase buffer were dispensed in white 384 well plate (3572, Corning, N.Y., USA) (2 μl/well). Following compound dispensing (1 μl), 2 μl of ATP (final concentration 100 μM) was added and incubated for 30 min at room temperature. After that, 5 μl of ADP-Glo™ reagent was dispensed and incubated for 40 min at room temperature. Finally, 10 ul of Kinase Detection Reagent was dispensed and incubated for 30 min before measuring the plate on a Tecan infinite M1000pro plate reader (Luminescence mode).

[2] = target: T2, DYRK1B (Homo sapiens, UniProt Q9Y463); assay: In vitro kinase assay, immunoblot of p27 Ser10 phosphorylation by recombinant DYRK1B; format: biochemical; conditions: recombinant DYRK1B and p27, 100 μM ATP, FIG. 5a
T2 construct: purchased ThermoFisher
Method: (§1) Cells were lysed in lysis buffer (50 mM Tris-HCl pH 7.5, 250 mM NaCl, 0.5% NP-40, 5 mM NaCl, 5 mM NaF, 5 mM EDTA, 0.5 mM EGTA). Protein were separated in 10% SDS/PAGE gels, as previously described. Ser^10-p27 (sc-12939-R) (1:500) and DYRK1B (sc-390417) (1:200) antibodies were purchased from Santa-Cruz, γ-TUBULIN (ab11316) (1:5000) from Abcam, p27 (610242) (1:500) from BD Biosciences and V5 (R960-25) from Life Technology.
28 ng of GST-DYRK1B (ThermoFisher, NP_004705) and 100 ng of GST-p27 were mixed in 45 μl of kinase buffer (50 mM HEPES (pH 7.5), 1 mM DTT, MgCl2, 0.004% Triton X-100). Serial dilution of AZ191, compound of formula 10 or DMSO were added to the mix and incubated for 5 min at room temperature. 100 μM of ATP was added to start the kinase reaction which was carried out with constant shaking at 30° C. for 30 min. The reaction was terminated by addition of Laemmli buffer and boiled 5 min at 95° C. Finally, the proteins were separated by SDS page and detected by immunoblotting.

[3] = tested on: HT29 cells; assay: Immunoblot of p27 Ser10 phosphorylation in HT29 cells cultured in hypoxia; format: cell-based; conditions: FIG. 5b
Method: as §1

[4] = tested on: HT29-HRE MTS (hypoxic cancer cells); assay: Compound treatment of multicellular tumor spheroids (MTS), SYTOX cell death in the hypoxic core; format: cell-based; conditions: FIGS. 4a to 4e
Method: DMSO was used as negative control, AZ191 as positive control and staurosporine (STS) as a general cytotoxic control. Whole MTS was visualized by Hoechst staining and cell death by SYTOX staining. Scale bar 200 μm. […] Average±SD of n>10 MTS from 3 biological replicates are shown. […] After 72h hours in culture, 10 μl of a mix of SYTOX Orange (S11368) (1:1000) and Hoechst 33258 (1 μM) diluted in DMEM was added to each well of the ULA plate and incubated overnight before image acquisition. MTS were imaged with a 5× objective on Zeiss observer Z.1 microscope equipped with an automated stage, with Hoechst channel used for autofocusing. For each well, images of Hoechst, YFP and SYTOX channels were acquired in the middle of the MTS. Images were analyzed with a custom ImageJ script. Briefly, Hoechst channel images were used to generate a mask of the MTS, which was then scaled to 1:3 and transferred to the SYTOX channel to measure the pixel intensity in the core area of the MTS. HT29-HRE solution (20,000 cells/ml) was dispensed in ULA plates (250 μl/well) and spun at 700 g for 5 min. After 48 h, MTS were treated with 10 μl of serial dilutions of AZ191, compound of formula 10 DMSO or STS. The next day a mix of Hoechst and SYTOX was added to the wells. MTS were then processed as described above.

[5] = IC50 values for selected examples, GST-DYRK1B 5 nM, DYRKtide 50 μM, read-out: IC50
[6] = average of n=3 independent experiments, read-out: IC50 of DYRK1B kinase activity inhibition (ADP-Glo titration curve)

T1 sequence (Q9Y463 whole entry): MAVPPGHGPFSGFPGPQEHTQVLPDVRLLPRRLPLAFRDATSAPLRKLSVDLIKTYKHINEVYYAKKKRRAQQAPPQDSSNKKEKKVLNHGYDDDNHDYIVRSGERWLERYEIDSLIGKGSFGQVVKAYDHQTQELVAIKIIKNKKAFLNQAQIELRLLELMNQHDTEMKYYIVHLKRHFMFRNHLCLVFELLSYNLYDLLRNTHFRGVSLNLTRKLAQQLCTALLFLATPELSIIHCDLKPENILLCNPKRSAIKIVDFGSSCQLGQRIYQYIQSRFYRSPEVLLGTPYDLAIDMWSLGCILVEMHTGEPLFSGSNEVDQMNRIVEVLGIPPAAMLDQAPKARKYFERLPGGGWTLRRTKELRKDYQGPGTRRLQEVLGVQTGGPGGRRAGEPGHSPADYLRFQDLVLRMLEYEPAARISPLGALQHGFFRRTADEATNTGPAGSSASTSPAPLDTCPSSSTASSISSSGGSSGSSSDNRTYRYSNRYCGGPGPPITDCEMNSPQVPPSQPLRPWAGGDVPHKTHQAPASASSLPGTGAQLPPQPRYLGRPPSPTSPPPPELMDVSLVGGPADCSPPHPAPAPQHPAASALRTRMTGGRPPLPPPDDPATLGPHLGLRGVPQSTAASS
T2 sequence (Q9Y463 whole entry): as above

Row | Compound | IC50 [1, 5] [µM] | IC50 [1, 6] [µM] | also measured
1 | COc1ccccc1-n1cc(-c2ccnc(NCc3cnc(C)cn3)n2)cn1 [4-[1-(2-methoxyphenyl)-1H-pyrazol-4-yl]-N-[(5-methyl-2-pyrazinyl)methyl]-2-pyrimidinamine] | 10.3 |  | 
2 | Fc1ccccc1-n1cc(-c2ccnc(NCC(F)F)n2)cn1 [N-(2,2-difluoroethyl)-4-[1-(2-fluorophenyl)-1H-pyrazol-4-yl]pyrimidin-2-amine] | 6.98 |  | 
3 | Fc1ccccc1-n1cc(-c2ccnc(NC3CCOCC3)n2)cn1 [compound of formula 12] |  | 2 | 
4 | OCCCCCNc1nccc(-c2cnn(-c3ccccc3F)c2)n1 [5-({4-[1-(2-fluorophenyl)-1H-pyrazol-4-yl]pyrimidin-2-yl}amino)pentan-1-ol] | 2 |  | 
5 | NCCCCCNc1nccc(-c2cnn(-c3ccccc3F)c2)n1 [N-{4-[1-(2-fluorophenyl)-1H-pyrazol-4-yl]pyrimidin-2-yl}pentane-1,5-diamine] | 3.97 |  | 
6 | CC(Cc1ccncc1)Nc1nccc(-c2cnn(-c3ccccc3F)c2)n1 (centres unmarked) [compound of formula 16] |  | 2 | 

The next lines start with results.

Row | IC50 [1, 5] [µM] | IC50 [1, 6] [µM] | Compound | also measured
7 | 15.6 |  | NCCCCCNc1nccc(-c2cnn(-c3ccc(F)cc3)c2)n1 [N-{4-[1-(4-fluorophenyl)-1H-pyrazol-4-yl]pyrimidin-2-yl}pentane-1,5-diamine, reference compound] | 
8 |  | 3 | CCNc1nccc(-c2cnn(-c3ccccc3F)c2)n1 [compound of formula 14] | 
9 |  | 3 | COc1ccccc1-n1cc(-c2ccnc(NCc3c(C)n[nH]c3C)n2)cn1 [compound of formula 19] | 
10 | 3.52 |  | Cc1cccnc1CNc1nccc(-c2cnn(-c3ccccc3F)c2)n1 [4-[1-(2-fluorophenyl)-1H-pyrazol-4-yl]-N-[(3-methyl-2-pyridinyl)methyl]-2-pyrimidinamine] | 
11 |  | 4 | Fc1ccccc1-n1cc(-c2ccnc(NCc3ccncc3)n2)cn1 [compound of formula 10, 4-(1-(2-fluorophenyl)-1H-pyrazole-4-yl)-N-(pyridine-4-ylmethyl)pyrimidine-2-amine] | inhibition of phosphorylation of DYRK1B substrate p27 at serine 10 [2]: inhibited the phosphorylation of DYRK1B substrate p27 at serine 10; inhibition of phosphorylation of p27 at serine 10 in cells [3]: inhibited the phosphorylation of DYRK1B substrate p27 at serine 10; activity against hypoxic cancer cells [4]: high activity
